Laboratory results reported in US11197878B2, “Anti-inflammatory composition including novel quercetin-based compound” (AMOREPACIFIC CORPORATION, priority 2017, dated 2021).

Test system: skin
Assay: Test for skin accumulated stimulus, HRIPT (Human repeated insult patch tests)
Format: in vivo
Parameters: key to skin reactivity (ICDRG criteria): −: negative (no response); ±: doubtful or slight erythema, etc.; +: weak reaction (which is accompanied with no phlyctenule), erythema, papule; ++: severe reaction (which is accompanied with phlyctenule), erythema, papule, phlyctenule; +++: strong reaction, bullae reaction
Settings: for Number of examinees who exhibited ±, +, or ++ reactivity, 1st: 1st patch; for Number of examinees who exhibited ±, +, or ++ reactivity, 2nd: 2nd patch; for Number of examinees who exhibited ±, +, or ++ reactivity, 3rd: 3rd patch; for Number of examinees who exhibited ±, +, or ++ reactivity, 4th: 4th patch; for Number of examinees who exhibited ±, +, or ++ reactivity, 5th: 5th patch; for Number of examinees who exhibited ±, +, or ++ reactivity, 6th: 6th patch; for Number of examinees who exhibited ±, +, or ++ reactivity, 7th: 7th patch; for Number of examinees who exhibited ±, +, or ++ reactivity, 8th: 8th patch; for average reactivity: 9 patches over 3 weeks, 15 examinees, less than 3 is considered a stable composition; for Number of examinees who exhibited ±, +, or ++ reactivity, 9th: 9th patch
Description: HRIPT (Human repeated insult patch tests) was conducted in order to identify skin accumulated stimulus of quercetin3-O-[3-O″-(E)-p-coumaroyl][β-D-glucopyranosyl-(1→3)-O-α-L-rhamnopyranosyl-(1→6)-O-β-D-glucopyranoside] and quercetin3-O-[3-O″-(E)-p-coumaroyl][α-L-rhamnopyranosyl-(1→6)-O-β-D-glucopyranoside] and to calculate the concentration range that can be used in skin. Specifically, 15 healthy adult examinees were randomly selected, and test compositions in which the compounds were respectively comprised in an amount of 0.5 wt. %, 1 wt. %, and 3 wt. % (the compositions for skin, comprising an emulsifying agent, a stabilizer, purified water, etc. in addition to the compounds) were dropped in the amount of 20 μl per chamber (IQ chamber, Epitest Ltd, Finland), and patched on the right site of the upper back of the examinees, and then, after 24 hours, the patch was replaced with a new patch. A total of 9 patches were conducted, three times a week for total 3 weeks, in such manner, the skin reactions before and after patch were examined every time, and the skin reactions until 48 hours after removing the final patch were observed, and the average reactivity was observed. The skin reaction was determined according to the criteria of International Contact Dermatitis Research Group (ICDRG). In the above table, “New Material 31” refers to quercetin3-O-[3-O″-(E)-p-coumaroyl][β-D-glucopyranosyl-(1→3)-O-α-L-rhamnopyranosyl-(1→6)-O-β-D-glucopyranoside], and “New Material 32” refers to quercetin3-O-[3-O″-(E)-p-coumaroyl][α-L-rhamnopyranosyl-(1→6)-O-β-D-glucopyranoside].

C[C@@H]1O[C@@H](OC[C@H]2O[C@@H](Oc3c(-c4ccc(O)c(O)c4)oc4cc(O)cc(O)c4c3=O)[C@H](O)[C@@H](OC(=O)/C=C/c3ccc(O)cc3)[C@@H]2O)[C@H](O)[C@H](O)[C@H]1O [New Material 32, quercetin3-O-[3-O″-(E)-p-coumaroyl][α-L-rhamnopyranosyl-(1→6)-O-β-D-glucopyranoside]]
Number of examinees who exhibited ±, +, or ++ reactivity, 1st (0.5 wt. %, line 1 of 3 (±)): 0 number
Number of examinees who exhibited ±, +, or ++ reactivity, 1st (0.5 wt. %, line 2 of 3 (+)): 0 number
Number of examinees who exhibited ±, +, or ++ reactivity, 1st (0.5 wt. %, line 3 of 3 (++)): 0 number
Number of examinees who exhibited ±, +, or ++ reactivity, 2nd (0.5 wt. %, line 1 of 3 (±)): 0 number
Number of examinees who exhibited ±, +, or ++ reactivity, 2nd (0.5 wt. %, line 2 of 3 (+)): 0 number
Number of examinees who exhibited ±, +, or ++ reactivity, 2nd (0.5 wt. %, line 3 of 3 (++)): 0 number
Number of examinees who exhibited ±, +, or ++ reactivity, 3rd (0.5 wt. %, line 1 of 3 (±)): 0 number
Number of examinees who exhibited ±, +, or ++ reactivity, 3rd (0.5 wt. %, line 2 of 3 (+)): 0 number
Number of examinees who exhibited ±, +, or ++ reactivity, 3rd (0.5 wt. %, line 3 of 3 (++)): 0 number
Number of examinees who exhibited ±, +, or ++ reactivity, 4th (0.5 wt. %, line 1 of 3 (±)): 0 number
Number of examinees who exhibited ±, +, or ++ reactivity, 4th (0.5 wt. %, line 2 of 3 (+)): 0 number
Number of examinees who exhibited ±, +, or ++ reactivity, 4th (0.5 wt. %, line 3 of 3 (++)): 0 number
Number of examinees who exhibited ±, +, or ++ reactivity, 5th (0.5 wt. %, line 1 of 3 (±)): 0 number
Number of examinees who exhibited ±, +, or ++ reactivity, 5th (0.5 wt. %, line 2 of 3 (+)): 0 number
Number of examinees who exhibited ±, +, or ++ reactivity, 5th (0.5 wt. %, line 3 of 3 (++)): 0 number
Number of examinees who exhibited ±, +, or ++ reactivity, 6th (0.5 wt. %, line 1 of 3 (±)): 0 number
Number of examinees who exhibited ±, +, or ++ reactivity, 6th (0.5 wt. %, line 2 of 3 (+)): 0 number
Number of examinees who exhibited ±, +, or ++ reactivity, 6th (0.5 wt. %, line 3 of 3 (++)): 0 number
Number of examinees who exhibited ±, +, or ++ reactivity, 7th (0.5 wt. %, line 1 of 3 (±)): 0 number
Number of examinees who exhibited ±, +, or ++ reactivity, 7th (0.5 wt. %, line 2 of 3 (+)): 0 number
Number of examinees who exhibited ±, +, or ++ reactivity, 7th (0.5 wt. %, line 3 of 3 (++)): 0 number
Number of examinees who exhibited ±, +, or ++ reactivity, 8th (0.5 wt. %, line 1 of 3 (±)): 0 number
Number of examinees who exhibited ±, +, or ++ reactivity, 8th (0.5 wt. %, line 2 of 3 (+)): 0 number
Number of examinees who exhibited ±, +, or ++ reactivity, 8th (0.5 wt. %, line 3 of 3 (++)): 0 number
average reactivity (0.5 wt. %): 0
Number of examinees who exhibited ±, +, or ++ reactivity, 9th (0.5 wt. %, line 1 of 3 (±)): 0 number
Number of examinees who exhibited ±, +, or ++ reactivity, 9th (0.5 wt. %, line 2 of 3 (+)): 0 number
Number of examinees who exhibited ±, +, or ++ reactivity, 9th (0.5 wt. %, line 3 of 3 (++)): 0 number
Number of examinees who exhibited ±, +, or ++ reactivity, 1st (1 wt. %, line 1 of 3 (±)): 0 number
Number of examinees who exhibited ±, +, or ++ reactivity, 1st (1 wt. %, line 2 of 3 (+)): 0 number
Number of examinees who exhibited ±, +, or ++ reactivity, 1st (1 wt. %, line 3 of 3 (++)): 0 number
Number of examinees who exhibited ±, +, or ++ reactivity, 2nd (1 wt. %, line 1 of 3 (±)): 0 number
Number of examinees who exhibited ±, +, or ++ reactivity, 2nd (1 wt. %, line 2 of 3 (+)): 0 number
Number of examinees who exhibited ±, +, or ++ reactivity, 2nd (1 wt. %, line 3 of 3 (++)): 0 number
Number of examinees who exhibited ±, +, or ++ reactivity, 3rd (1 wt. %, line 1 of 3 (±)): 0 number
Number of examinees who exhibited ±, +, or ++ reactivity, 3rd (1 wt. %, line 2 of 3 (+)): 0 number
Number of examinees who exhibited ±, +, or ++ reactivity, 3rd (1 wt. %, line 3 of 3 (++)): 0 number
Number of examinees who exhibited ±, +, or ++ reactivity, 4th (1 wt. %, line 1 of 3 (±)): 0 number
Number of examinees who exhibited ±, +, or ++ reactivity, 4th (1 wt. %, line 2 of 3 (+)): 0 number
Number of examinees who exhibited ±, +, or ++ reactivity, 4th (1 wt. %, line 3 of 3 (++)): 0 number
Number of examinees who exhibited ±, +, or ++ reactivity, 5th (1 wt. %, line 1 of 3 (±)): 0 number
Number of examinees who exhibited ±, +, or ++ reactivity, 5th (1 wt. %, line 2 of 3 (+)): 0 number
Number of examinees who exhibited ±, +, or ++ reactivity, 5th (1 wt. %, line 3 of 3 (++)): 0 number
Number of examinees who exhibited ±, +, or ++ reactivity, 6th (1 wt. %, line 1 of 3 (±)): 0 number
Number of examinees who exhibited ±, +, or ++ reactivity, 6th (1 wt. %, line 2 of 3 (+)): 0 number
Number of examinees who exhibited ±, +, or ++ reactivity, 6th (1 wt. %, line 3 of 3 (++)): 0 number
Number of examinees who exhibited ±, +, or ++ reactivity, 7th (1 wt. %, line 1 of 3 (±)): 0 number
Number of examinees who exhibited ±, +, or ++ reactivity, 7th (1 wt. %, line 2 of 3 (+)): 0 number
Number of examinees who exhibited ±, +, or ++ reactivity, 7th (1 wt. %, line 3 of 3 (++)): 0 number
Number of examinees who exhibited ±, +, or ++ reactivity, 8th (1 wt. %, line 1 of 3 (±)): 0 number
Number of examinees who exhibited ±, +, or ++ reactivity, 8th (1 wt. %, line 2 of 3 (+)): 0 number
Number of examinees who exhibited ±, +, or ++ reactivity, 8th (1 wt. %, line 3 of 3 (++)): 0 number
average reactivity (1 wt. %): 0
Number of examinees who exhibited ±, +, or ++ reactivity, 9th (1 wt. %, line 1 of 3 (±)): 0 number
Number of examinees who exhibited ±, +, or ++ reactivity, 9th (1 wt. %, line 2 of 3 (+)): 0 number
Number of examinees who exhibited ±, +, or ++ reactivity, 9th (1 wt. %, line 3 of 3 (++)): 0 number
Number of examinees who exhibited ±, +, or ++ reactivity, 1st (3 wt. %, line 1 of 3 (±)): 0 number
Number of examinees who exhibited ±, +, or ++ reactivity, 1st (3 wt. %, line 2 of 3 (+)): 0 number
Number of examinees who exhibited ±, +, or ++ reactivity, 1st (3 wt. %, line 3 of 3 (++)): 0 number
Number of examinees who exhibited ±, +, or ++ reactivity, 2nd (3 wt. %, line 1 of 3 (±)): 0 number
Number of examinees who exhibited ±, +, or ++ reactivity, 2nd (3 wt. %, line 2 of 3 (+)): 0 number
Number of examinees who exhibited ±, +, or ++ reactivity, 2nd (3 wt. %, line 3 of 3 (++)): 0 number
Number of examinees who exhibited ±, +, or ++ reactivity, 3rd (3 wt. %, line 1 of 3 (±)): 0 number
Number of examinees who exhibited ±, +, or ++ reactivity, 3rd (3 wt. %, line 2 of 3 (+)): 0 number
Number of examinees who exhibited ±, +, or ++ reactivity, 3rd (3 wt. %, line 3 of 3 (++)): 0 number
Number of examinees who exhibited ±, +, or ++ reactivity, 4th (3 wt. %, line 1 of 3 (±)): 0 number
Number of examinees who exhibited ±, +, or ++ reactivity, 4th (3 wt. %, line 2 of 3 (+)): 0 number
Number of examinees who exhibited ±, +, or ++ reactivity, 4th (3 wt. %, line 3 of 3 (++)): 0 number
Number of examinees who exhibited ±, +, or ++ reactivity, 5th (3 wt. %, line 1 of 3 (±)): 0 number
Number of examinees who exhibited ±, +, or ++ reactivity, 5th (3 wt. %, line 2 of 3 (+)): 0 number
Number of examinees who exhibited ±, +, or ++ reactivity, 5th (3 wt. %, line 3 of 3 (++)): 0 number
Number of examinees who exhibited ±, +, or ++ reactivity, 6th (3 wt. %, line 1 of 3 (±)): 0 number
Number of examinees who exhibited ±, +, or ++ reactivity, 6th (3 wt. %, line 2 of 3 (+)): 0 number
Number of examinees who exhibited ±, +, or ++ reactivity, 6th (3 wt. %, line 3 of 3 (++)): 0 number
Number of examinees who exhibited ±, +, or ++ reactivity, 7th (3 wt. %, line 1 of 3 (±)): 0 number
Number of examinees who exhibited ±, +, or ++ reactivity, 7th (3 wt. %, line 2 of 3 (+)): 0 number
Number of examinees who exhibited ±, +, or ++ reactivity, 7th (3 wt. %, line 3 of 3 (++)): 0 number
Number of examinees who exhibited ±, +, or ++ reactivity, 8th (3 wt. %, line 1 of 3 (±)): 0 number
Number of examinees who exhibited ±, +, or ++ reactivity, 8th (3 wt. %, line 2 of 3 (+)): 0 number
Number of examinees who exhibited ±, +, or ++ reactivity, 8th (3 wt. %, line 3 of 3 (++)): 0 number
average reactivity (3 wt. %): 0
Number of examinees who exhibited ±, +, or ++ reactivity, 9th (3 wt. %, line 1 of 3 (±)): 0 number
Number of examinees who exhibited ±, +, or ++ reactivity, 9th (3 wt. %, line 2 of 3 (+)): 0 number
Number of examinees who exhibited ±, +, or ++ reactivity, 9th (3 wt. %, line 3 of 3 (++)): 0 number
skin reactivity (ICDRG criteria) (within the range of contents 0.5 wt. %, 1 wt. %, 3 wt. %): −
